US10328077B2 (CELGENE CORPORATION, priority 2016, dated 2019)

Experiments:
hERG potassium channel = hERG potassium channel (Homo sapiens (Human), UniProt Q12809)
[1] = Pharmacokinetics after IV and oral dose, rats; format: in vivo, Sprague Dawley rats; conditions: for half-life: read-out: t1/2, z (converted)
[2] = test system: LU2527 lung NEC patient-derived xenograft; format: in vivo
[3] = Pharmacokinetics after IV and oral dose, mice; format: in vivo, CD-1 mice; conditions: mouse
muscarinic M1 receptor = muscarinic M1 receptor (Homo sapiens (Human), UniProt P11229); assay: CEREP in vitro pharmacology panel, muscarinic M1 receptor
[4] = Excretion in bile duct cannulated rats; format: in vivo; conditions: IV, 24-hour period
[5] = Predicted human pharmacokinetics (allometric scaling)
CYP2D6 = CYP2D6 (Homo sapiens (Human), UniProt P10635); assay: CYP inhibition in pooled human liver microsomes, CYP2D6; format: in vitro ADME; conditions: up to 50 μM
MS-1 hMCC xenograft = format: in vivo; conditions: 5 mg/kg PO 5 on/2 off
[6] = test system: LU1480 SCLC patient-derived xenograft; assay: LU1480 HuPrime SCLC PDX model; format: in vivo, mice
P-gp (MDR1) = P-gp (MDR1) (Homo sapiens (Human), UniProt P08183); assay: Permeability in MDR1-MDCK cells; format: in vitro ADME
[7] = 4-week toxicity study (no recovery period) in dogs (incl. TK)
[8] = 4-week oral gavage pivotal toxicity study with 4-week recovery in dogs (incl. ECG, TK); format: in vivo, Beagle dogs; conditions: for AUC(0-t): Beagle, po, AUC0-168
Protocol: The QTc interval was calculated using the Fridericia method.

[9] = test system: LXFS 615 SCLC patient-derived xenograft; assay: LXFS 615 SCLC PDX model; format: in vivo, mice
LXFS 615 SCLC PDX model = format: in vivo, mice; conditions: female, NMRI-Foxnlnu, mouse, oral; 5 mg base/kg, plasma after final dose; read-out: AUC0-24
[10] = Sprague Dawley, plasma, rat, female, single IV dose 5 mg
[11] = Sprague Dawley, plasma, rat, female, single oral dose 5 mg base/kg
[12] = Sprague Dawley, plasma, rat, female, single oral dose 15 mg base/kg
[13] = Sprague Dawley, plasma, rat, female, single oral dose 50 mg base/kg
[14] = CD-1, plasma, female, single IV dose 5 mg
[15] = CD-1, plasma, female, single oral dose 10 mg base/kg

Sequence of P-gp (MDR1) (P08183 whole entry): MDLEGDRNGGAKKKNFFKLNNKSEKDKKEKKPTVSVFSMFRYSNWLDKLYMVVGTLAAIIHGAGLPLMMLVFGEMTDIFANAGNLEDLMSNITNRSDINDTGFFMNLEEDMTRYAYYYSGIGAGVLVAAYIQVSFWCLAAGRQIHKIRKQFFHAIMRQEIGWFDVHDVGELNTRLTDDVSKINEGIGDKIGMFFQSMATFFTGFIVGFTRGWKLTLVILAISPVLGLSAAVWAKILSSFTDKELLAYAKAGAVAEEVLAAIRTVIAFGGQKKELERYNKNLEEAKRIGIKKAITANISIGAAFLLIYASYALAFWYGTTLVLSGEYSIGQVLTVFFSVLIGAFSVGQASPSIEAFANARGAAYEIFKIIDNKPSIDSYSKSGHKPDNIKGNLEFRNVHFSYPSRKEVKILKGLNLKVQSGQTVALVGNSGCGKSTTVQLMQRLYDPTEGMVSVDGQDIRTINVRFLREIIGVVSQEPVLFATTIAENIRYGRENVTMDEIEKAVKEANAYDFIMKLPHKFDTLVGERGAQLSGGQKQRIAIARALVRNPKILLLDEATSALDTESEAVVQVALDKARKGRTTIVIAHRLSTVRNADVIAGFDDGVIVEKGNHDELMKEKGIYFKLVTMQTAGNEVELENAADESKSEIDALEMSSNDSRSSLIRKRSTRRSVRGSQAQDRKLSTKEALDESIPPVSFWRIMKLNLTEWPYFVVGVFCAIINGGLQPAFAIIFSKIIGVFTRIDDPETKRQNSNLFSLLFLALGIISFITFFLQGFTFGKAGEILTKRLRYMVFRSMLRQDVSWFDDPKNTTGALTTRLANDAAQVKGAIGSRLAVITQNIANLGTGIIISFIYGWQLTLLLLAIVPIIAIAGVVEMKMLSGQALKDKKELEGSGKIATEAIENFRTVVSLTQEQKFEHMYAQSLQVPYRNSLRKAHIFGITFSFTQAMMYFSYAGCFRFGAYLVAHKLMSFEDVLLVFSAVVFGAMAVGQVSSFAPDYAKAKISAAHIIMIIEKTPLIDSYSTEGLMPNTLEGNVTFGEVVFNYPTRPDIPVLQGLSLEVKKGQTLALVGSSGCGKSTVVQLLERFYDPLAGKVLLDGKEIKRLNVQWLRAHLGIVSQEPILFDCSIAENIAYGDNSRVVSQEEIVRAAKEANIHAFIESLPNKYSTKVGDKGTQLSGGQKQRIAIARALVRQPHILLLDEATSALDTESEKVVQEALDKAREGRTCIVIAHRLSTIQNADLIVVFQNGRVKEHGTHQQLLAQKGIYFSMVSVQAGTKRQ
Sequence of muscarinic M1 receptor (P11229 whole entry): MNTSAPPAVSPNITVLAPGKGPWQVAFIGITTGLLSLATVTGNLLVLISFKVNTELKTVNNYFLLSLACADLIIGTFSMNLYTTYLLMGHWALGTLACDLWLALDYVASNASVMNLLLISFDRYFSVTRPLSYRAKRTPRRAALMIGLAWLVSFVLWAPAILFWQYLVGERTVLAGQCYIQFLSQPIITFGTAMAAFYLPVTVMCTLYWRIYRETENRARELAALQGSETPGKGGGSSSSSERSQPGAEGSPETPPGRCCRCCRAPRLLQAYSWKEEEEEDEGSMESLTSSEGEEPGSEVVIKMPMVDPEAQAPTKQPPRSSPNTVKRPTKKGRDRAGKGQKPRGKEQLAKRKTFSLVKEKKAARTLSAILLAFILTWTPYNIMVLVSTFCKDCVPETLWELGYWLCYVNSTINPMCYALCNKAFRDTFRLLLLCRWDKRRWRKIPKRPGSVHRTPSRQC
Sequence of hERG potassium channel (Q12809 whole entry): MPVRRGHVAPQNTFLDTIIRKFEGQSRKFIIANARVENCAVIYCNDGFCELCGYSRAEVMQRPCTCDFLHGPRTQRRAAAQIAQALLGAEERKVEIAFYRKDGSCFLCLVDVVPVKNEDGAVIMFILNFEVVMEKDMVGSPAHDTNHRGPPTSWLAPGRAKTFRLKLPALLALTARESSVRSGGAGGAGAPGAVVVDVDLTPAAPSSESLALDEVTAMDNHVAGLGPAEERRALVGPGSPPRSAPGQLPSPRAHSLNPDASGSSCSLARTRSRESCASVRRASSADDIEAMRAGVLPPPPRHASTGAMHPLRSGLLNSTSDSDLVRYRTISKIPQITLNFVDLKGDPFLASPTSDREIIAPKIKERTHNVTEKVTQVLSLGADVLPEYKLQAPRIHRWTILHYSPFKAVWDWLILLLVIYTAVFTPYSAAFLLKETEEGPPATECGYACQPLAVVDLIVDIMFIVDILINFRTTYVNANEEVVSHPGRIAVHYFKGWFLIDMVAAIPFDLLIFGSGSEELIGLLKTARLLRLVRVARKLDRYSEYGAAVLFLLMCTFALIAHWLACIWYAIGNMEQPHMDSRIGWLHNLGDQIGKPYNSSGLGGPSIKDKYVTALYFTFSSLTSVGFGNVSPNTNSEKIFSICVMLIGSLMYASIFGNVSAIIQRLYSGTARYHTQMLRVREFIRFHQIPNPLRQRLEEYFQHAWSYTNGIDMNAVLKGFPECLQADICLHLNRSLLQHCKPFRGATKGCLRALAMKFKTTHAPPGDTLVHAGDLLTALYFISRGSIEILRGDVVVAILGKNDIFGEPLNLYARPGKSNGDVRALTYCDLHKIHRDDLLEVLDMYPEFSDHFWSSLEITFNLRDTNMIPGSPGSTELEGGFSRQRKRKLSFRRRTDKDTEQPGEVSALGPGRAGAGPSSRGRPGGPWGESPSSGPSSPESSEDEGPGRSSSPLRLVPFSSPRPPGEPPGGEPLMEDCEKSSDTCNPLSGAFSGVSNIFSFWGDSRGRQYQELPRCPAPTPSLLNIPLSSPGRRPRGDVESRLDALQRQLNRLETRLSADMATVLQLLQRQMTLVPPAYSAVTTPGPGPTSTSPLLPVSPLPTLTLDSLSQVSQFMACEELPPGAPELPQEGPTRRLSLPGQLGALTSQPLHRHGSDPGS
Sequence of CYP2D6 (P10635 whole entry): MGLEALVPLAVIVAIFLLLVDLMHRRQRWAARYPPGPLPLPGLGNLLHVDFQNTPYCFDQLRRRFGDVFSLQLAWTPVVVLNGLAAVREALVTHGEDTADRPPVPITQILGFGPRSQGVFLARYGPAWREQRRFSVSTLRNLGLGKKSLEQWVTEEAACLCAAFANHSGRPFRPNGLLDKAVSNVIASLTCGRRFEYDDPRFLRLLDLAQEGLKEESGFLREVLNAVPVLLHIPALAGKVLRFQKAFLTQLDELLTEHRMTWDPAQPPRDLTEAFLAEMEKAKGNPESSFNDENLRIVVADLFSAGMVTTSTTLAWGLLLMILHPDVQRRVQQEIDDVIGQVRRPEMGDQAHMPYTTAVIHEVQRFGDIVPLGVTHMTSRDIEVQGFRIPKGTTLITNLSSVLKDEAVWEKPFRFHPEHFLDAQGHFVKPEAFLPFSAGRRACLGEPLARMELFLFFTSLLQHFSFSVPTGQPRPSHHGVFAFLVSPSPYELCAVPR

For `COc1ccc(-c2c(-c3ccc(C#N)c(F)c3)nc(N3CCC(N)CC3)n(C)c2=O)cc1F` [Compound A, 4-[2-(4-amino-piperidin-1-yl)-5-(3-fluoro-4-methoxy-phenyl)-1-methyl-6-oxo-1,6-dihydro-pyrimidin-4-yl]-2-fluoro-benzonitrile], the Hill coefficient (hERG potassium channel) was 1.2, the systemic clearance ([1]; IV, rats (greater than liver blood flow)) was “high” and the AUC(0-inf) [1, 10] was 0.733 µg·h/mL. It also gave an AUC(0-t) [1, 10] of 0.68 µg·h/mL, a clearance [1, 10] of 6.9 L/h/kg and a Vd ([1]; Sprague Dawley, plasma, rat, female, single IV dose 5 mg, mean (SD), read-out: Vss) of 26.2 L/kg. The half-life [1, 10] was 3.6 h, the AUC(0-t) [1, 11] was 0.222 µg·h/mL and the Cmax [1, 11] was 0.047 µg/mL. It also gave a Tmax [1, 11] of 2 h, a bioavailability [1, 11] of 33% and a half-life [1, 11] of 3 h. For the same compound, the AUC(0-t) [1, 12] was 0.57 µg·h/mL, the Cmax [1, 12] was 0.123 µg/mL and the Tmax [1, 12] was 2 h. It also gave a bioavailability [1, 12] of 28%, a half-life [1, 12] of 2.9 h and an AUC(0-t) [1, 13] of 4.65 µg·h/mL. For the same compound, the Cmax [1, 13] was 0.621 µg/mL, the Tmax [1, 13] was 6 h and the bioavailability [1, 13] was 74%. The half-life [1, 13] was 3 h, the “Median Tumor Volume Day 46” value ([2]; 5 mg/kg PO QD x 46) was 329.7 mm^3 and the “Median Tumor Volume Diff (Day 46 - Day 0)” value ([2]; 5 mg/kg PO QD x 46) was 177.9 mm^3. For the same compound, the “% TGI” value ([2]; 5 mg/kg PO QD x 46, Day 46) was 84%, the TGI ([2]; 5 mg/kg oral QD for 46 days) was 84% and the tolerability ([2]; 1.5 and 5 mg/kg oral QD) was “acceptably tolerated”. It also gave a half-life ([3]; CD-1 (mice), Sprague Dawley (rats), plasma, IV, rodents (mice, rats), read-out: half-life) of 2 to 4 h, a Tmax ([3]; CD-1, Sprague Dawley, Beagle, plasma, oral, across mice, rats, dogs, monkeys, read-out: median tmax) of 0.5 to 6 h and a bioavailability ([3]; CD-1, Sprague Dawley, plasma, po, rodents, read-out: oral bioavailability) of 28 to 74%. It also gave an AUC(0-inf) [3, 14] of 2.66 µg·h/mL, an AUC(0-t) [3, 14] of 2.21 µg·h/mL and a clearance [3, 14] of 1.92 L/h/kg. The Vd ([3]; CD-1, plasma, female, single IV dose 5 mg, read-out: Vss) was 7.51 L/kg, the half-life ([3]; CD-1, plasma, female, single IV dose 5 mg, read-out: t1/2, z (converted)) was 3.8 h and the AUC(0-t) [3, 15] was 2.01 µg·h/mL. For the same compound, the Cmax [3, 15] was 0.51 µg/mL, the bioavailability ([3]; CD-1, plasma, female, single oral dose 10 mg base/kg, read-out: % F) was 38% and the half-life ([3]; CD-1, plasma, female, single oral dose 10 mg base/kg, read-out: t1/2, z (converted)) was 1.7 h. The Tmax ([3]; CD-1, plasma, female, single oral dose 10 mg base/kg, read-out: tmax) was 0.5 h, the Ki (muscarinic M1 receptor) was 1.6 µM and the inhibition at 10 µM (muscarinic M1 receptor; read-out: inhibition of ligand binding) was 76%. For the same compound, the “dose excreted intact (urine + bile)” value [4] was 26.3 % of the dose, the “dose excreted intact in bile” value [4] was 17.8 % of dose and the “dose excreted intact in urine” value [4] was 8.5 % of dose. For the same compound, the “predicted steady state systemic exposure (AUCt)” value ([5]; 1.25 mg oral QW, 60-kg human, 80% oral bioavailability assumed) was 0.029 µg·h/mL, the predicted clearance ([5]; allometric scaling) was 0.564 L/h/kg and the “predicted volume of distribution” value ([5]; allometric scaling) was 17.6 L/kg. The “direct inhibition of CYP2D6” value (CYP2D6) was “little to no direct inhibitory effect”, the “Median Tumor Volume Day 36” value (MS-1 hMCC xenograft) was 129 mm^3 and the “Median Tumor Volume Diff (Day 36 - Day -3)” value (MS-1 hMCC xenograft) was 80 mm^3. The “Median Tumor Volume Day 21” value ([6]; 5 mg base/kg PO QDx21) was 490.1 mm^3, the “Median Tumor Volume Diff. (Day 21 - Day 1)” value ([6]; 5 mg base/kg PO QDx21) was 400.6 mm^3 and the “Median Tumor Volume Day 21” value ([6]; 10 mg base/kg PO QDx21) was 321.4 mm^3. The “Median Tumor Volume Diff. (Day 21 - Day 1)” value ([6]; 10 mg base/kg PO QDx21) was 234.3 mm^3, the “% TGI” value ([6]; 10 mg base/kg PO QDx21, Day 21) was 72% and the TGI ([6]; 10 mg base/kg oral for 21 days) was 72%. For the same compound, the Papp A→B (P-gp (MDR1)) was 5 nm/s, the Papp B→A (P-gp (MDR1)) was 165 nm/s and the HNSTD ([7]; Q2W administration) was 0.5 mg base/kg/dose. For the same compound, the NOAEL ([7]; Q2W administration) was under 0.5 mg base/kg/dose, the NOAEL ([7]; QW administration) was 0.125 mg base/kg/dose and the HNSTD ([7]; QW dosing) was 0.25 mg base/kg/dose. For the same compound, the “NOEL for CV and respiratory changes” value ([8]; BIW oral) was 0.375 mg base/kg/dose, the “HNSTD and NOAEL” value ([8]; QW or BIW dose schedule) was under 0.375 mg base/kg/dose and the “NOEL for CV and respiratory changes” value ([8]; QW oral) was 0.75 mg base/kg/dose. The reversibility of findings ([8]; dog, in vivo) was “complete recovery”, the AUC(0-t) ([8]; female, dog, in vivo) was 0.435 µg·h/mL and the AUC(0-t) ([8]; male, dog, in vivo) was 0.503 µg·h/mL. The moribund euthanasia ([8]; weekly oral 0.375 to 1.5 mg base/kg, Days 13 to 23) was 11 animals, the primary toxicities ([8]; ≥0.375 mg base/kg/dose, QW or BIW) was “mucosal ulceration, acute and/or subacute inflammation, and mucosal epithelial atrophy of GI tract tissues” and the “mean body weight loss” value ([9]; 5 mg base/kg) was under 1%. It also gave a TGI ([9]; 5 mg base/kg oral for 30 days) of 78% and an AUC(0-t) (LXFS 615 SCLC PDX model) of 1.62 µg·h/mL.
